In the NIST ThermoML archive (doi:10.1016/j.jct.2019.01.025):
± gives the expanded uncertainty stated by the source.

Assay: xn = mol fraction of the nth substance listed
Conditions: 100 kPa, Liquid, Vibrating tube method

NCCO [2-aminoethan-1-ol] + CC(C)(C)O
mass density [kg/m3]
Conditions | x1 = 0.1188 | x1 = 0.2328 | x1 = 0.3421 | x1 = 0.4472 | x1 = 0.5482 | x1 = 0.6454 | x1 = 0.739 | x1 = 0.8291 | x1 = 0.9161 | x1 = 1
298.15 K | 801.37 ± 5.3 | 821.17 ± 5.5 | 842.86 ± 5.8 | 865.97 ± 5.9 | 887.94 ± 6.2 | 912.32 ± 6.6 | 938.36 ± 6.8 | 962.65 ± 7 | 988.97 ± 7.1 | 1012.53 ± 4
303.15 K | 796.64 ± 5.3 | 816.75 ± 5.5 | 838.57 ± 5.8 | 861.74 ± 5.9 | 883.79 ± 6.2 | 908.2 ± 6.6 | 934.25 ± 6.8 | 958.59 ± 7 | 984.91 ± 7.1 | 1008.47 ± 4
308.15 K | 791.93 ± 5.4 | 812.34 ± 5.5 | 834.31 ± 5.8 | 857.55 ± 6 | 879.69 ± 6.2 | 904.13 ± 6.6 | 930.2 ± 6.8 | 954.6 ± 7 | 980.92 ± 7.1 | 1004.49 ± 4
313.15 K | 787.14 ± 5.5 | 807.85 ± 5.5 | 829.98 ± 5.8 | 853.33 ± 6 | 875.55 ± 6.2 | 900.04 ± 6.6 | 926.15 ± 6.8 | 950.59 ± 7 | 976.92 ± 7.1 | 1000.5 ± 4
318.15 K | 782.16 ± 5.5 | 803.17 ± 5.6 | 825.49 ± 5.8 | 848.95 ± 6 | 871.27 ± 6.2 | 895.8 ± 6.7 | 921.97 ± 6.8 | 946.45 ± 7 | 972.81 ± 7.1 | 996.39 ± 4
323.15 K | 777.17 ± 5.5 | 798.52 ± 5.6 | 821.03 ± 5.9 | 844.64 ± 6 | 867.05 ± 6.2 | 891.65 ± 6.7 | 917.86 ± 6.8 | 942.41 ± 7 | 968.8 ± 7.1 | 992.41 ± 4

CC(C)(C)O [2-methylpropan-2-ol] + NCCO
x2 = 0
Conditions | mass density [kg/m3]
298.15 K | 780.61 ± 4
303.15 K | 775.42 ± 4
308.15 K | 770.21 ± 4
313.15 K | 764.92 ± 4
318.15 K | 759.42 ± 4
323.15 K | 753.95 ± 4

CCCO [propan-1-ol] + NCCO
x2 = 0
Conditions | mass density [kg/m3]
293.15 K | 803.77 ± 4
298.15 K | 799.69 ± 4
303.15 K | 795.58 ± 4
308.15 K | 791.52 ± 4
313.15 K | 787.42 ± 4
318.15 K | 783.17 ± 4
323.15 K | 778.96 ± 4

NCCO [2-aminoethan-1-ol] + CC(C)CO
mass density [kg/m3]
Conditions | x1 = 0.1188 | x1 = 0.2328 | x1 = 0.3421 | x1 = 0.4472 | x1 = 0.5482 | x1 = 0.6454 | x1 = 0.739 | x1 = 0.8291 | x1 = 0.9161 | x1 = 1
293.15 K | 819.76 ± 5.2 | 840.36 ± 5.4 | 859.83 ± 5.5 | 880.16 ± 5.7 | 901.41 ± 5.9 | 923.2 ± 6.2 | 946.54 ± 6.2 | 967.04 ± 6.5 | 992.18 ± 7 | 1016.47 ± 4
298.15 K | 815.85 ± 5.2 | 836.42 ± 5.4 | 855.88 ± 5.5 | 876.22 ± 5.7 | 897.44 ± 5.9 | 919.26 ± 6.2 | 942.54 ± 6.2 | 963.08 ± 6.5 | 988.22 ± 7 | 1012.53 ± 4
303.15 K | 811.84 ± 5.2 | 832.41 ± 5.4 | 851.83 ± 5.5 | 872.2 ± 5.7 | 893.38 ± 5.9 | 915.22 ± 6.2 | 938.44 ± 6.2 | 959.04 ± 6.5 | 984.12 ± 7 | 1008.47 ± 4
308.15 K | 807.88 ± 5.2 | 828.46 ± 5.4 | 847.85 ± 5.5 | 868.25 ± 5.7 | 889.39 ± 5.9 | 911.26 ± 6.2 | 934.38 ± 6.2 | 955.07 ± 6.5 | 980.15 ± 7 | 1004.49 ± 4
313.15 K | 803.87 ± 5.2 | 824.49 ± 5.4 | 843.85 ± 5.5 | 864.27 ± 5.7 | 885.38 ± 5.9 | 907.27 ± 6.2 | 930.38 ± 6.2 | 951.07 ± 6.5 | 976.15 ± 7 | 1000.5 ± 4
318.15 K | 799.72 ± 5.2 | 820.35 ± 5.4 | 839.71 ± 5.5 | 860.15 ± 5.7 | 881.25 ± 5.9 | 903.15 ± 6.2 | 926.19 ± 6.2 | 946.97 ± 6.5 | 972.04 ± 7 | 996.39 ± 4
323.15 K | 795.62 ± 5.2 | 816.29 ± 5.4 | 835.65 ± 5.5 | 856.12 ± 5.7 | 877.2 ± 5.9 | 899.14 ± 6.2 | 922.11 ± 6.2 | 942.97 ± 6.5 | 968.05 ± 7 | 992.41 ± 4

NCCO [2-aminoethan-1-ol] + CCO
mass density [kg/m3]
Conditions | x1 = 0.0773 | x1 = 0.1586 | x1 = 0.2443 | x1 = 0.3346 | x1 = 0.43 | x1 = 0.5308 | x1 = 0.6377 | x1 = 0.7511 | x1 = 0.8716 | x1 = 1
293.15 K | 810.46 ± 6.7 | 831.93 ± 6.5 | 853.39 ± 6.4 | 876.12 ± 6.3 | 899.09 ± 6.2 | 921.99 ± 6 | 945.08 ± 5.8 | 968.64 ± 5.7 | 992.58 ± 5.5 | 1016.47 ± 4
298.15 K | 806.22 ± 6.7 | 827.71 ± 6.5 | 849.2 ± 6.4 | 871.96 ± 6.3 | 894.95 ± 6.2 | 917.9 ± 6 | 941.02 ± 5.8 | 964.62 ± 5.7 | 988.58 ± 5.5 | 1012.53 ± 4
303.15 K | 801.86 ± 6.7 | 823.37 ± 6.5 | 844.9 ± 6.4 | 867.69 ± 6.3 | 890.7 ± 6.2 | 913.65 ± 6 | 936.83 ± 5.8 | 960.48 ± 5.7 | 984.46 ± 5.6 | 1008.47 ± 4
308.15 K | 797.55 ± 6.7 | 819.07 ± 6.5 | 840.65 ± 6.4 | 863.47 ± 6.3 | 886.5 ± 6.2 | 909.55 ± 6 | 932.73 ± 5.8 | 956.42 ± 5.7 | 980.42 ± 5.6 | 1004.49 ± 4
313.15 K | 793.21 ± 6.7 | 814.75 ± 6.5 | 836.38 ± 6.5 | 859.23 ± 6.4 | 882.29 ± 6.2 | 905.4 ± 6 | 928.6 ± 5.8 | 952.34 ± 5.7 | 976.38 ± 5.6 | 1000.5 ± 4
318.15 K | 788.71 ± 6.7 | 810.29 ± 6.5 | 831.96 ± 6.5 | 854.85 ± 6.4 | 877.94 ± 6.2 | 901.1 ± 6 | 924.34 ± 5.8 | 948.13 ± 5.7 | 972.21 ± 5.6 | 996.39 ± 4
323.15 K | 784.27 ± 6.7 | 805.9 ± 6.5 | 827.62 ± 6.5 | 850.55 ± 6.4 | 873.69 ± 6.2 | 896.9 ± 6 | 920.19 ± 5.9 | 944.04 ± 5.7 | 968.17 ± 5.6 | 992.41 ± 4

NCCO [2-aminoethan-1-ol] + CC(C)O
mass density [kg/m3]
Conditions | x1 = 0.0986 | x1 = 0.1974 | x1 = 0.2966 | x1 = 0.3961 | x1 = 0.496 | x1 = 0.5961 | x1 = 0.6966 | x1 = 0.7974 | x1 = 0.8985 | x1 = 1
293.15 K | 804.43 ± 5.6 | 824.39 ± 5.7 | 844.97 ± 6 | 868.88 ± 6.2 | 891.61 ± 6.2 | 915.69 ± 6.2 | 939.56 ± 6.3 | 965.29 ± 6.4 | 989.95 ± 6.5 | 1016.47 ± 4
298.15 K | 800.28 ± 5.7 | 820.25 ± 5.7 | 840.83 ± 6 | 864.78 ± 6.2 | 887.55 ± 6.2 | 911.65 ± 6.2 | 935.53 ± 6.3 | 961.29 ± 6.4 | 985.96 ± 6.5 | 1012.53 ± 4
303.15 K | 795.98 ± 5.7 | 815.98 ± 5.7 | 836.58 ± 6 | 860.58 ± 6.2 | 883.37 ± 6.2 | 907.48 ± 6.2 | 931.4 ± 6.4 | 957.17 ± 6.4 | 981.86 ± 6.5 | 1008.47 ± 4
308.15 K | 791.72 ± 5.7 | 811.76 ± 5.7 | 832.38 ± 6 | 856.42 ± 6.2 | 879.25 ± 6.2 | 903.38 ± 6.2 | 927.32 ± 6.4 | 953.13 ± 6.4 | 977.84 ± 6.5 | 1004.49 ± 4
313.15 K | 787.39 ± 5.7 | 807.48 ± 5.7 | 828.13 ± 6 | 852.23 ± 6.2 | 875.1 ± 6.2 | 899.25 ± 6.2 | 923.23 ± 6.4 | 949.07 ± 6.4 | 973.81 ± 6.5 | 1000.5 ± 4
318.15 K | 782.87 ± 5.7 | 803.04 ± 5.8 | 823.74 ± 6 | 847.9 ± 6.2 | 870.82 ± 6.2 | 895 ± 6.2 | 919 ± 6.4 | 944.88 ± 6.4 | 969.66 ± 6.5 | 996.39 ± 4
323.15 K | 778.38 ± 5.7 | 798.63 ± 5.8 | 819.42 ± 6 | 843.64 ± 6.2 | 866.61 ± 6.2 | 890.84 ± 6.3 | 914.87 ± 6.4 | 940.8 ± 6.4 | 965.62 ± 6.5 | 992.41 ± 4

CC(C)CO [2-methyl-1-propanol] + NCCO
x2 = 0
Conditions | mass density [kg/m3]
293.15 K | 801.85 ± 4
298.15 K | 797.99 ± 4
303.15 K | 794.03 ± 4
308.15 K | 790.09 ± 4
313.15 K | 786.12 ± 4
318.15 K | 781.97 ± 4
323.15 K | 777.86 ± 4

CCO [ethanol] + NCCO
x2 = 0
Conditions | mass density [kg/m3]
293.15 K | 789.4 ± 4
298.15 K | 785.13 ± 4
303.15 K | 780.75 ± 4
308.15 K | 776.41 ± 4
313.15 K | 772.04 ± 4
318.15 K | 767.52 ± 4
323.15 K | 763.04 ± 4
